Results taken from patent US20250177425A1, “SAIKOSAPONIN C AS COMPOSITION FOR TREATING OR PREVENTING AGE-RELATED VASCULAR DISEASES INCLUDING ARTERIOSCLEROSIS” (AGINGTARGET, INC., priority 2022, published 2025).

Tests used:
Assay type in all cases: cell-based, human
HUVEC = assay: Mechanism study: SA-β-gal staining with NOS and Sirt1 inhibitors; conditions: Saikosaponin C 20 μM, 33 mM high glucose 72 hours
Method: (§1) Similar to Experimental Example 1, a high-fat diet evaluation system at the cellular level was established. Specifically, […], which are vascular endothelial cells, were pretreated with Saikosaponin C at a concentration of 20 μM for 2 hours, and then treated with high glucose at a concentration of 33 mM for 72 hours (for SA-β-gal staining) or 36 hours (for the analysis of enzyme activity of NOS and Sirt1). Then, SA-β-gal staining, NOS enzyme activity, and Sirt1 enzyme activity were analyzed. To analyze whether or not NOS and Sirt1 protein are involved in the anti-vascular aging effect of Saikosaponin C and the relationship between NOS and Sirt1 protein, L-NG-nitro arginine methyl ester (L-NAME) (5 mM), an inhibitor of NOS, and EX-527 (10 μM), an inhibitor of Sirt1 protein, were used. […] The senescence of vascular endothelial cells was assessed through intracellular SA-β-gal staining (FIG. 8A). The activities of NOS (FIG. 8B) and Sirt1 protein (FIG. 8C) were measured using the NOS Activity Assay Kit and the Sirt1 Activity Assay Kit, respectively.

NOS in HUVEC = assay: Mechanism study: NOS Activity Assay Kit with NOS and Sirt1 inhibitors; conditions: Saikosaponin C 20 μM, 33 mM high glucose 36 hours
Method: as §1

Sirt1 in HUVEC = assay: Mechanism study: Sirt1 Activity Assay Kit with NOS inhibitor; conditions: L-NAME 5 mM, Saikosaponin C 20 μM, 33 mM high glucose 36 hours
Method: as §1

| SMILES | anti-vascular aging effect of Saikosaponin C (SA-β-gal) after inhibitor pretreatment (HUVEC; L-NAME 5 mM) | Saikosaponin C-mediated recovery of the reduction in NOS activity caused by high glucose (NOS in HUVEC; L-NAME 5 mM) | Saikosaponin C-mediated recovery of the reduction in Sirt1 activity caused by high glucose (Sirt1 in HUVEC) | anti-vascular aging effect of Saikosaponin C (SA-β-gal) after inhibitor pretreatment (HUVEC; EX-527 10 μM) | Saikosaponin C-mediated recovery of the reduction in NOS activity caused by high glucose (NOS in HUVEC; EX-527 10 μM) |
| --- | --- | --- | --- | --- | --- |
| COC(=O)[C@@H](N)CCCNC(=N)N[N+](=O)[O-] [L-NAME, L-NG-nitro arginine methyl ester] | significantly abolished | abolished | did not abolish |  |  |
| NC(=O)C1CCCc2c1[nH]c1ccc(Cl)cc21 (centres unmarked) [EX-527] |  |  |  | significantly abolished | abolished |
